A word on the DC50: it is the concentration at which degradation of the target reaches its halfway point. As a reminder, the IC50 is the concentration needed to halve the response being measured.

These results are taken from patent US11912682B2, “Isoindolinone compounds” (Monte Rosa Therapeutics, Inc., priority 2021, dated 2024).

The target in one assay is GSPT1 (Homo sapiens (Human), UniProt P15170+Q96SW2). Description: immunofluorescence assay for GSPT1 degradation in CAL-51 cells (Example 4). The assay is classed as cell-based. A digest of the protocol:
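CAL-51 cells on fibronectin-coated plates were treated 6 h with serial dilutions (30 μM to 0.1 nM), then fixed and immunostained for GSPT1 with DAPI and phalloidin counterstains. Per-cell mean GSPT1 intensity from high-content imaging, normalized to controls; DC50 by non-linear regression.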

Assay [1] addresses Full length wild-type cereblon CRBN (Homo sapiens (Human), UniProt Q96SW2). In words: fluorescence polarization (FP) assay, cereblon binding. A digest of the protocol: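 Full-length wild-type CRBN (80.0 nM as dispensed) preincubated 30 min at room temperature with compound in HEPES pH 8.0, NaCl, TCEP, 0.05% Tween 20.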
For orientation: Fluorescence polarisation rises when a labelled molecule tumbles more slowly, as on binding a larger partner.

The mark [2] stands for this setting: 6 hours, read-out: Activity for GSPT1 degradation, Code (DC50).
Setting [3] is: GSPT1 degradation, read-out: DC50 value.

Read-outs that look alike come from different tables or passages of the source. Bounds are passed on as bounds.

Full length wild-type cereblon CRBN, sequence (Q96SW2 whole entry): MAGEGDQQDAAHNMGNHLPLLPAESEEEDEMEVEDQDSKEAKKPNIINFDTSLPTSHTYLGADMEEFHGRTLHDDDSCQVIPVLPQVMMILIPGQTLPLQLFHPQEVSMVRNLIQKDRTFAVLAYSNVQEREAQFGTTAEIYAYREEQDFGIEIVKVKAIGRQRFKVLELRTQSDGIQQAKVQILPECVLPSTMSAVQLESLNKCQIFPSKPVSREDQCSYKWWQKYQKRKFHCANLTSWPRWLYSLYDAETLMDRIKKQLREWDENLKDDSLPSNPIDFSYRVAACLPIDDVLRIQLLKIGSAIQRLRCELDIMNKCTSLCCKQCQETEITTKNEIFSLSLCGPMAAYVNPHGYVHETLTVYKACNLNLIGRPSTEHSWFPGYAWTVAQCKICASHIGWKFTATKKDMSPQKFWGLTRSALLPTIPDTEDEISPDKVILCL
GSPT1, sequence (P15170 whole entry): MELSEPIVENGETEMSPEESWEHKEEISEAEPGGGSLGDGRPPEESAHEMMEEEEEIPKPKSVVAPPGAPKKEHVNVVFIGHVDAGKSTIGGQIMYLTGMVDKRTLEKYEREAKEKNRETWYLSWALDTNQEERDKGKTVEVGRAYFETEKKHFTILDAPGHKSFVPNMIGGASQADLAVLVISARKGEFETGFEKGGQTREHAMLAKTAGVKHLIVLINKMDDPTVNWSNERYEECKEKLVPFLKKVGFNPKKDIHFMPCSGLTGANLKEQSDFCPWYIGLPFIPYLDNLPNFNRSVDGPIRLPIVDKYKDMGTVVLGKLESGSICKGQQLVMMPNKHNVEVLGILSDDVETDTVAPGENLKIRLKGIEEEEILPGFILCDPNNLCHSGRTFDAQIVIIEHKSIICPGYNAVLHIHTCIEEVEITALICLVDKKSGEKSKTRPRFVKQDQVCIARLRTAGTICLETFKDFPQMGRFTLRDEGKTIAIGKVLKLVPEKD
GSPT1, sequence (Q96SW2 whole entry): as the sequence (Q96SW2 whole entry) above
GSPT1, sequence (Q16531 2-1140 partner): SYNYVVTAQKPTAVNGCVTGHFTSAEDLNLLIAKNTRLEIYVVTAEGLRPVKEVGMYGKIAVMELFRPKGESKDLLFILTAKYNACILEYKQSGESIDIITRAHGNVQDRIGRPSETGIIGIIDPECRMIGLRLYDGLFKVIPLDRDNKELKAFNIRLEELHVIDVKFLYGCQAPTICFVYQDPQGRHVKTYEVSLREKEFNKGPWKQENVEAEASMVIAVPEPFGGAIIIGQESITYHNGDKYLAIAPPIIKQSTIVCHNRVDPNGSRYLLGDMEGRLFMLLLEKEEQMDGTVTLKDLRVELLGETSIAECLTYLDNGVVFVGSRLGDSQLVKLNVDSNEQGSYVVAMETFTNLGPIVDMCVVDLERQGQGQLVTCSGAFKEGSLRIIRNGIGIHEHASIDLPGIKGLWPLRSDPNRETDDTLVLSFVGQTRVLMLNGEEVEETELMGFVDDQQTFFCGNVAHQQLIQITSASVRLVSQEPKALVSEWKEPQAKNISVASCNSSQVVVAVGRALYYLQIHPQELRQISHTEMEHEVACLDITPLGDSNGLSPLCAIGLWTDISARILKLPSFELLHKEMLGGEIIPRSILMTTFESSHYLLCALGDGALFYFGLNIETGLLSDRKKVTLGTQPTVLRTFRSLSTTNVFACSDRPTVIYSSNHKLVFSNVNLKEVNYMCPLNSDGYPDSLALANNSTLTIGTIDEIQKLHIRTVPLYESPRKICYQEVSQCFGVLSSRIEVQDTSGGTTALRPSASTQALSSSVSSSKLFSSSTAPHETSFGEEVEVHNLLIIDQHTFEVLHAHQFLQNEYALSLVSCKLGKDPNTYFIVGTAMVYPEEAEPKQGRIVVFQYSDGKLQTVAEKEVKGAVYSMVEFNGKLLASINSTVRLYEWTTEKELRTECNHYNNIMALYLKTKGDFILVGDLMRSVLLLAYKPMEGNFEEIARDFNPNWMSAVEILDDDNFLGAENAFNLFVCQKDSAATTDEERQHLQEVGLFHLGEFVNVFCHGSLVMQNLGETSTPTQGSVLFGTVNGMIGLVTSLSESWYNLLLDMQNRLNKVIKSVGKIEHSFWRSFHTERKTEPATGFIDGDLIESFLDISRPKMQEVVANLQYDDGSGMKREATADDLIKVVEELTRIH

`O=C1CCC(N2Cc3ccc(COC(=O)Nc4ccc(C5CC5(F)F)cc4)cc3C2=O)C(=O)N1` (stereo not shown) [Compound 101]: the DC50 at GSPT1 (setting [2]) lay within 30 to 300 nM. Moreover, the IC50 in assay [1] (read-out: rFP IC50) was greater than 1700 nM.

On to `CC(NC(=O)OCc1ccc2c(c1)C(=O)N(C1CCC(=O)NC1=O)C2)c1ccccc1` (stereo not shown) [Compound 102], for which, at GSPT1 (setting [2]), the DC50 is greater than 300 nM. Besides, the IC50 in assay [1] (read-out: IC50 value) is less than 1100 nM.

`CC1COc2cc(NC(=O)OCc3ccc4c(c3)C(=O)N(C3CCC(=O)NC3=O)C4)ccc21` (stereo not shown) [Compound 103]: on GSPT1 (setting [2]), the DC50 was in the range of 30 to 300 nM. Moreover, the IC50 in assay [1] (read-out: IC50 value) is less than 1100 nM.

Regarding `O=C1CCC(N2Cc3ccc(COC(=O)Nc4ccc(C5CCC5)cc4)cc3C2=O)C(=O)N1` (stereo not shown) [Compound 104], the DC50 at GSPT1 (setting [2]) is 30 to 300 nM. In addition, the IC50 in assay [1] (read-out: rFP IC50) was greater than 1700 nM.

Consider `O=C1CCC(N2Cc3ccc(COC(=O)Nc4ccc(C5CCC5)nc4)cc3C2=O)C(=O)N1` (stereo not shown) [Compound 105], for which the DC50 on GSPT1 (setting [2]) lay in the range of 30 to 300 nM. Moreover, in assay [1] (read-out: IC50 value), the half-inhibitory concentration (IC50) is less than 1100 nM.

Turning to `O=C1CCC(N2Cc3ccc(COC(=O)Nc4cc(OCCN5CCOCC5)cc(OC(F)(F)F)c4)cc3C2=O)C(=O)N1` (stereo not shown) [Compound 106], the DC50 at GSPT1 (setting [2]) lay within 30 to 300 nM. For the same compound, the IC50 in assay [1] (read-out: IC50 value) is less than 1100 nM.

Regarding `O=C1CCC(N2Cc3ccc(COC(=O)Nc4ccc(N5CCC5)nc4)cc3C2=O)C(=O)N1` (stereo not shown) [Compound 107], at GSPT1 (setting [2]), the DC50 was greater than 300 nM. For the same compound, the IC50 in assay [1] (read-out: rFP IC50) is less than 500 nM.

Consider `Cc1cc(NC(=O)OCc2ccc3c(c2)C(=O)N(C2CCC(=O)NC2=O)C3)cc(C)c1C#N` (stereo not shown) [Compound 108], for which the DC50 on GSPT1 (setting [2]) lay in the range of 30 to 300 nM. The IC50 in assay [1] (read-out: rFP IC50) is less than 500 nM.

Consider `Cc1ccc(NC(=O)OCc2ccc3c(c2)C(=O)N(C2CCC(=O)NC2=O)C3)cc1C#N` (stereo not shown) [Compound 110, (2-(2,6-dioxopiperidin-3-yl)-3-oxoisoindolin-5-yl)methyl(3-cyano-4-methylphenyl)carbamate], for which the 50% degradation concentration (DC50) on GSPT1 (setting [3]) is no more than 30 nM; on GSPT1 (read-out: Activity for GSPT1 degradation, Code (DC50), 6 hours), less than 30 nM. Besides, the IC50 in assay [1] (IC50 value) is less than 1100 nM; in assay [1] (read-out: IC50 value), less than 500 nM; in assay [1] (read-out: rFP IC50), less than 500 nM.

Take `N#Cc1cc(Cl)cc(NC(=O)OCc2ccc3c(c2)C(=O)N(C2CCC(=O)NC2=O)C3)c1` (stereo not shown) [Compound 111, (2-(2,6-dioxopiperidin-3-yl)-3-oxoisoindolin-5-yl)methyl (3-chloro-5-cyanophenyl)carbamate]: at GSPT1 (setting [2]), the DC50 was in the range of 30 to 300 nM. Besides, the IC50 in assay [1] (read-out: rFP IC50) was less than 500 nM.

Consider `Cc1cc(C#N)cc(NC(=O)OCc2ccc3c(c2)C(=O)N(C2CCC(=O)NC2=O)C3)c1` (stereo not shown) [Compound 112, (2-(2,6-dioxopiperidin-3-yl)-3-oxoisoindolin-5-yl)methyl (3-cyano-5-methylphenyl)carbamate], for which, on GSPT1 (setting [2]), the 50% degradation concentration (DC50) was in the range of 30 to 300 nM. In assay [1] (read-out: rFP IC50), the half-maximal inhibitory concentration (IC50) was less than 500 nM.

For the compound `O=C1CCC(N2Cc3ccc(COC(=O)Nc4ccc5c(c4)CC(F)(F)O5)cc3C2=O)C(=O)N1` (stereo not shown) [Compound 113], the half-maximal degradation concentration (DC50) at GSPT1 (setting [2]) lay within 30 to 300 nM. The IC50 in assay [1] (read-out: rFP IC50) is less than 500 nM.

As for `CC(C)(C)c1cc(NC(=O)OCc2ccc3c(c2)C(=O)N(C2CCC(=O)NC2=O)C3)ccn1` (stereo not shown) [Compound 114], the DC50 on GSPT1 (setting [2]) was less than 30 nM. Also, the IC50 in assay [1] (read-out: rFP IC50) is less than 500 nM.

In the case of `Cc1c(F)cc(NC(=O)OCc2ccc3c(c2)C(=O)N(C2CCC(=O)NC2=O)C3)cc1Cl` (stereo not shown) [Compound 116], at GSPT1 (setting [2]), the DC50 is 30 to 300 nM. The IC50 in assay [1] (read-out: rFP IC50) was greater than 1700 nM.

For the compound `CC(OC(=O)Nc1cccc(OC(F)(F)F)c1)c1ccc2c(c1)C(=O)N(C1CCC(=O)NC1=O)C2` (stereo not shown) [Compound 121, 1-(2-(2,6-dioxopiperidin-3-yl)-3-oxoisoindolin-5-yl)ethyl(3-(trifluoromethoxy)phenyl)carbamate], on GSPT1 (setting [2]), the DC50 was greater than 300 nM. Also, the half-inhibitory concentration (IC50) in assay [1] (read-out: rFP IC50) is greater than 1700 nM.

As for `Cc1cc(C)c(F)c(NC(=O)OCc2ccc3c(c2)C(=O)N(C2CCC(=O)NC2=O)C3)c1` (stereo not shown) [Compound 122, (2-(2,6-dioxopiperidin-3-yl)-3-oxoisoindolin-5-yl)methyl (2-fluoro-3,5-dimethylphenyl)carbamate], at GSPT1 (setting [2]), the DC50 fell in the range of 30 to 300 nM. Moreover, in assay [1] (read-out: rFP IC50), the IC50 is less than 500 nM.

In the case of `Cc1cc(NC(=O)OCc2ccc3c(c2)C(=O)N(C2CCC(=O)NC2=O)C3)cc(C)c1F` (stereo not shown) [Compound 124, (2-(2,6-dioxopiperidin-3-yl)-3-oxoisoindolin-5-yl)methyl (4-fluoro-3,5-dimethylphenyl)carbamate], on GSPT1 (setting [2]), the DC50 is 30 to 300 nM. In assay [1] (read-out: rFP IC50), the IC50 was less than 500 nM.

Regarding `O=C1CCC(N2Cc3ccc(COC(=O)Nc4cc(OC(F)(F)F)ccc4Cl)cc3C2=O)C(=O)N1` (stereo not shown) [Compound 125, (2-(2,6-dioxopiperidin-3-yl)-3-oxoisoindolin-5-yl)methyl(2-chloro-5-(trifluoromethoxy)phenyl)carbamate], the DC50 on GSPT1 (setting [2]) was greater than 300 nM. In assay [1] (read-out: rFP IC50), the IC50 is greater than 1700 nM.

For the compound `O=C1CCC(N2Cc3ccc(COC(=O)NC45CC(c6ccccc6)(C4)C5)cc3C2=O)C(=O)N1` (stereo not shown) [Compound 126, (2-(2,6-dioxopiperidin-3-yl)-3-oxoisoindolin-5-yl)methyl (3-phenylbicyclo[1.1.1]pentan-1-yl carbamate], the DC50 at GSPT1 (setting [2]) was less than 30 nM; on GSPT1 (setting [3]) it was no more than 30 nM. In assay [1] (read-out: rFP IC50), the IC50 was less than 500 nM.

Regarding `Cc1ccc(NC(=O)OCc2ccc3c(c2)C(=O)N(C2CCC(=O)NC2=O)C3)cc1C` (stereo not shown) [Compound 129], the DC50 at GSPT1 (setting [2]) was in the range of 30 to 300 nM. The IC50 in assay [1] (read-out: rFP IC50) is less than 500 nM.

As to `O=C1CCC(N2Cc3ccc(COC(=O)Nc4cc(F)c(-c5ccccc5)c(F)c4)cc3C2=O)C(=O)N1` (stereo not shown) [Compound 134, (2-(2,6-dioxopiperidin-3-yl)-3-oxoisoindolin-5-yl)methyl(2,6-difluoro-[1,1′-biphenyl]-4-yl)carbamate], the DC50 at GSPT1 (setting [2]) was 30 to 300 nM. In addition, the IC50 in assay [1] (read-out: rFP IC50) was greater than 1700 nM.

With `O=C1CCC(N2Cc3ccc(COC(=O)Nc4ccc(-c5ccccn5)cc4F)cc3C2=O)C(=O)N1` (stereo not shown) [Compound 135, (2-(2,6-dioxopiperidin-3-yl)-3-oxoisoindolin-5-yl)methyl (2-fluoro-4-(pyridin-2-yl)phenyl)carbamate], the figures for the DC50 at GSPT1 (setting [2]) and on GSPT1 (setting [3]) were less than 30 nM and no more than 30 nM, respectively. Besides, the IC50 in assay [1] (read-out: rFP IC50) is less than 500 nM.

Take `O=C1CCC(N2Cc3ccc(COC(=O)Nc4ccc(-c5ccccc5)c(F)c4)cc3C2=O)C(=O)N1` (stereo not shown) [Compound 136, (2-(2,6-dioxopiperidin-3-yl)-3-oxoisoindolin-5-yl)methyl (2-fluoro-[1,1′-biphenyl]-4-yl) carbamate]: at GSPT1 (setting [2]), the DC50 fell in the range of 30 to 300 nM. In addition, in assay [1] (read-out: rFP IC50), the IC50 was greater than 1700 nM.

Take `Cc1cc(NC(=O)OCc2ccc3c(c2)C(=O)N(C2CCC(=O)NC2=O)C3)ccc1-c1ccccc1` (stereo not shown) [Compound 137, (2-(2,6-dioxopiperidin-3-yl)-3-oxoisoindolin-5-yl)methyl(2-methyl-[1,1′-biphenyl]-4-yl)carbamate]: the DC50 on GSPT1 (setting [2]) was less than 30 nM; on GSPT1 (setting [3]), no more than 30 nM. Moreover, in assay [1] (read-out: rFP IC50), the IC50 is greater than 1700 nM.

For the compound `O=C1CCC(N2Cc3ccc(COC(=O)Nc4ccc(-c5ccccc5)cn4)cc3C2=O)C(=O)N1` (stereo not shown) [Compound 143, (2-(2,6-dioxopiperidin-3-yl)-3-oxoisoindolin-5-yl)methyl (5-phenylpyridin-2-yl)carbamate], at GSPT1 (setting [2]), the DC50 was 30 to 300 nM. In assay [1] (read-out: rFP IC50), the IC50 was greater than 1700 nM.

As for `O=C1CCC(N2Cc3ccc(COC(=O)Nc4ccc(OC(F)(F)F)cc4F)cc3C2=O)C(=O)N1` (stereo not shown) [Compound 148, (2-(2,6-dioxopiperidin-3-yl)-3-oxoisoindolin-5-yl)methyl(2-fluoro-4-(trifluoromethoxy)phenyl)carbamate], at GSPT1 (setting [2]), the DC50 is greater than 300 nM. The IC50 in assay [1] (read-out: rFP IC50) is greater than 1700 nM.

Turning to `O=C1CCC(N2Cc3ccc(COC(=O)Nc4ccnc(-c5ccccc5)c4)cc3C2=O)C(=O)N1` (stereo not shown) [Compound 149], the DC50 on GSPT1 (setting [2]) is greater than 300 nM. Also, the IC50 in assay [1] (read-out: rFP IC50) was less than 500 nM.

Consider `CC1(c2ccc(NC(=O)OCc3ccc4c(c3)C(=O)N(C3CCC(=O)NC3=O)C4)cn2)CC1` (stereo not shown) [Compound 152, (2-(2,6-dioxopiperidin-3-yl)-3-oxoisoindolin-5-yl)methyl (6-(1-methylcyclopropyl)pyridin-3-yl)carbamate], for which the values for the DC50 at GSPT1 (setting [2]) and at GSPT1 (setting [3]) were less than 30 nM and no more than 30 nM, respectively. In addition, in assay [1] (read-out: rFP IC50), the IC50 was less than 500 nM.

On to `O=C1CCC(N2Cc3ccc(COC(=O)Nc4ccc(OC(F)(F)F)cc4)cc3C2=O)C(=O)N1` (stereo not shown) [Compound 154, (2-(2,6-dioxopiperidin-3-yl)-3-oxoisoindolin-5-yl)methyl (4-(trifluoromethoxy)phenyl)carbamate], for which the DC50 on GSPT1 (setting [2]) was in the range of 30 to 300 nM. In addition, in assay [1] (read-out: rFP IC50), the IC50 was greater than 1700 nM.

In the case of `O=C1CCC(N2Cc3ccc(COC(=O)Nc4cc(-c5ccccc5)ccn4)cc3C2=O)C(=O)N1` (stereo not shown) [Compound 155, (2-(2,6-dioxopiperidin-3-yl)-3-oxoisoindolin-5-yl)methyl (4-phenylpyridin-2-yl)carbamate], the DC50 at GSPT1 (setting [2]) was in the range of 30 to 300 nM. Further, in assay [1] (read-out: rFP IC50), the IC50 was greater than 1700 nM.

`C[C@H]1CCCN1c1ccc(NC(=O)OCc2ccc3c(c2)C(=O)N(C2CCC(=O)NC2=O)C3)cn1` (stereo partly drawn) [Compound 156, (2-(2,6-dioxopiperidin-3-yl)-3-oxoisoindolin-5-yl)methyl (6-((S)-2-methylpyrrolidin-1-yl)pyridin-3-yl)carbamate]: the DC50 at GSPT1 (setting [2]) was less than 30 nM; at GSPT1 (setting [3]), no more than 30 nM. The half-inhibitory concentration (IC50) in assay [1] (read-out: rFP IC50) was less than 500 nM.

Consider `C[C@@H]1CCCN1c1ccc(NC(=O)OCc2ccc3c(c2)C(=O)N(C2CCC(=O)NC2=O)C3)cn1` (stereo partly shown) [Compound 157], for which the DC50 on GSPT1 (setting [2]) is less than 30 nM; at GSPT1 (setting [3]), no more than 30 nM. Moreover, the IC50 in assay [1] (read-out: rFP IC50) is less than 500 nM.
